Article PMC9652372, “Glycolytic flux control by drugging phosphoglycolate phosphatase” (Nature Communications, 2022)

Target: T1, NANP/HDHD4 (Mus musculus, UniProt Q9CPT3)
T1 construct: made in house; host or cells: Escherichia coli BL21 (DE3), pETM11 (cDNA from Origene #MR203153)
T1 sequence (Q9CPT3 1-248): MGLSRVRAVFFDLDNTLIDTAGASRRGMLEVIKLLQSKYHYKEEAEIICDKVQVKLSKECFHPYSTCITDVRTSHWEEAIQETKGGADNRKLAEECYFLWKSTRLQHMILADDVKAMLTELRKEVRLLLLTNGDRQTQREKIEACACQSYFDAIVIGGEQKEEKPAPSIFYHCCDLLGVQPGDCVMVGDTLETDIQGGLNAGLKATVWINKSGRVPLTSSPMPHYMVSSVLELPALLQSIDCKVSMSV
Experiment: In vitro phosphatase activity assay, NANP/HDHD4 (6-phosphogluconate)
Type: biochemical, murine
Details: NANP activity on 6-phosphogluconate
From the text: The following phosphatase constructs (in pCMV6) were purchased from Origene: murine LHPP (NM_029609; catalog #MC211738), murine LPIN1, transcript variant 2 (NM_015763, #MC204460), murine MDP1 (NM_023397, #MR201315), murine […]_026086, #MR203153), murine NT5C (NM_015807, #MR202028), human NT5M (NM_020201, #RC207737), murine PNKP (NM_021549, #MR207938), and murine PSPH (NM_133900, #MR202626). Purified human NT5C1A (NM_032526, #TP324617) and purified human PHOSPHO1 (NM_178500, #TP314434) were from Origene. The murine PHOSPHO2 construct (in pFLCI) was from Source BioScience (clone ID: I420023L04). Calf intestinal alkaline phosphatase (CIP) was from NEB. Purified, recombinant human calcineurin (PP2B) and human PTP1B (residues 1-322) were from Millipore (#207005 or #539736, respectively). […] The 3'-P-oligonucleotide 5'-[NT]^3-]-3' was used as a PNKP substrate. […] Data were analyzed with GraphPad Prism 7.04. […] (c) Upper panel, purity of the tested, recombinant phosphatases (10 μg of protein/lane). A Coomassie Blue-stained gel is shown. Tested enzymes that are not included in this panel were obtained commercially. Lower panel , Western blots showing the overexpression of the myc-tagged cytosolic 5', 3'-nucleotidase NT5C and mitochondrial 5', 3'-nucleotidase NT5M in HEK293 cells (uncropped blots in Source Data). […] Error bars not shown are hidden by the symbols. […]

Question: For `COc1ccc(C(=O)Nc2ccc(Cc3ccc(NC(=O)c4ccc(OC)c(OC)c4)c(C(=O)O)c3)cc2C(=O)O)cc1OC` [CP2], which IC50 is on record?
Answer: ~1000 nM
